Patent US20240287470A1 (priority 2023, published 2024)
Where a name gives a salt, the structure may show the parent alone. Read-outs that look alike come from different tables or passages of the source.

Columns and labels:
HEK293 cells [1] = type: cell-based; settings: detergent 0.5% w/v, then 0.2% DB
HEK293 cells [2] = assay: CHAPS evaluated at larger scale (1 L bioreactor); type: cell-based; settings: final concentration 0.5% w/v
Experimental: CHAPS was identified as a potential detergent candidate in the small scale screens and was evaluated at a larger scale (1 L bioreactor) at a final concentration of 0.5% w/v.

[3] = cited from earlier work
HEK293 cells [4] = assay: CTAB modifier screen: vg recovery in clarified lysate and loose resin affinity elution; type: cell-based; settings: LCD, 0.5% w/v CTAB
Experimental: The modifiers were selected based on their potential to interfere with and inhibit non-specific binding of rAAV3B capsids to heparin sulfate proteoglycan receptors on cells and cell lysis debris. Using 10 mL cell culture aliquots, modifiers were delivered to the culture at the concentrations shown in Table 3 and mixed for 10 min at room temperature (RT) prior to addition of the CTAB lysis detergent. CTAB was added to a final concentration of 0.5% w/v. Fold improvement in productivity was calculated by dividing total vector genomes (vgs) measured by qPCR quantification of copies of the vector transgene in product produced by a test condition over total vgs produced using 0.5% octoxynol-9 and 0.2% DB as the control lysis and flocculation condition. Total vgs were measured in the clarified lysate and in eluate produced by loose resin affinity purification of the clarified lysate. Conditions which produced greater than 2-fold improvement are highlighted in bold in Table 3.

[5] = system: pseudo rabies virus (PRV)
[6] = system: Murine leukemia virus (MuLV)
[7] = No modifier, LCD (approximately 12E+6 cells/mL), rAAV3B vector
[8] = modifier 80 μM CSE (chondroitin sulfate E)
[9] = modifier 80 μM SOS (sucrose octasulfate)
[10] = modifier 400 ug/mL low molecular weight (LMW) Dextran
[11] = 0.025% CTAB, 90 mins, value from titer plate
[12] = 0.05% CTAB, 90 mins, value from large volume plating
[13] = 0.25% CTAB, 90 mins, value from large volume plating
[14] = 0.5% octoxynol-9, 90 mins, value from large volume plating

C[C@H](CCC(=O)NCCC[N+](C)(C)CCCS(=O)(=O)[O-])[C@H]1CC[C@H]2[C@@H]3[C@H](O)C[C@@H]4C[C@H](O)CC[C@]4(C)[C@H]3C[C@H](O)[C@]12C [CHAPS, 3-[(3-cholamidopropyl)dimethylammonio]-1-propanesulfonate]
Fold improvement over octoxynol-9 and DB control (capsid recovery in clarified lysate) (HEK293 cells [1]; 0.2M Arginine modifier, LCD): 1.0 fold | Fold improvement over octoxynol-9 and DB control (capsid recovery in clarified lysate) (HEK293 cells [1]; 0.7M NaCl modifier, LCD): 1.6 fold | Fold improvement over octoxynol-9 and DB control (capsid recovery in clarified lysate) (HEK293 cells [1]; [7]): 2.1 fold | recovery improvement at larger scale (HEK293 cells [2]): failed to provide the same recovery improvement at large scale as at small scale

CCCCCCCCCCCCCCCC[N+](C)(C)C.[Br-] [CTAB, cetyltrimethylammonium bromide]
Fold improvement over octoxynol-9 and DB control (capsid recovery in clarified lysate) (HEK293 cells [1]; No modifier, HCD (approximately 18E+6 cells/mL), rAAV3B vector): 2.8 fold | Fold improvement over octoxynol-9 and DB control (capsid recovery in clarified lysate) (HEK293 cells [1]; [7]): 1.6 fold | critical micelle concentration ([3]; in water in the presence of MgSO4): about 0.63 mM | critical micelle concentration ([3]; in water): about 1.04 mM | fold productivity over octoxynol-9/DB control - affinity elution (HEK293 cells [4]; [8]): 0.05 fold | fold productivity over octoxynol-9/DB control - clarified lysate (HEK293 cells [4]; [8]): 1.22 fold | fold productivity over octoxynol-9/DB control - affinity elution (HEK293 cells [4]; [9]): 3.20 fold | fold productivity over octoxynol-9/DB control - clarified lysate (HEK293 cells [4]; [9]): 2.61 fold | fold productivity over octoxynol-9/DB control - affinity elution (HEK293 cells [4]; [10]): 1.20 fold | fold productivity over octoxynol-9/DB control - clarified lysate (HEK293 cells [4]; [10]): 0.14 fold | fold productivity over octoxynol-9/DB control - affinity elution (HEK293 cells [4]; modifier 6 mM ZnSO4): 2.41 fold | fold productivity over octoxynol-9/DB control - clarified lysate (HEK293 cells [4]; modifier 6 mM ZnSO4): 1.86 fold | fold productivity over octoxynol-9/DB control - affinity elution (HEK293 cells [4]; modifier 50 mM MgSO4): 7.77 fold | fold productivity over octoxynol-9/DB control - clarified lysate (HEK293 cells [4]; modifier 50 mM MgSO4): 3.21 fold | fold productivity over octoxynol-9/DB control - affinity elution (HEK293 cells [4]; no modifier): 3.81 fold | fold productivity over octoxynol-9/DB control - clarified lysate (HEK293 cells [4]; no modifier): 2.81 fold | Process demonstrated viral removal or inactivation (Log reduction >1) ([5]; 0.025% CTAB, 90 mins): Did not demonstrate inactivation | Minimum reduction values Run 1 [5, 11]: 0.71 ± 0.44 Log | Minimum reduction values Run 2 [5, 11]: 0.71 ± 0.39 Log | Process demonstrated viral removal or inactivation (Log reduction >1) ([5]; 0.05% CTAB, 90 mins): Demonstrated inactivation | Minimum reduction values Run 1 [5, 12]: ≥4.31 ± 0.27 Log | Minimum reduction values Run 2 [5, 12]: ≥4.67 ± 0.21 Log | Process demonstrated viral removal or inactivation (Log reduction >1) ([5]; 0.25% CTAB, 90 mins): Demonstrated inactivation | Minimum reduction values Run 1 [5, 13]: ≥4.73 ± 0.25 Log | Minimum reduction values Run 2 [5, 13]: ≥4.73 ± 0.31 Log

C[C@H](CCC(=O)O)[C@H]1CC[C@H]2[C@@H]3CC[C@@H]4C[C@H](O)CC[C@]4(C)[C@H]3C[C@H](O)[C@]12C [DOC, deoxycholic acid sodium salt]
Fold improvement over octoxynol-9 and DB control (capsid recovery in clarified lysate) (HEK293 cells [1]; [7]): 0.1 fold

CCCCCCCCCCCC(=O)OCCOCCOCCOCCOCCOCCOCCOCCOCCOCCOCCOCCOCCOCCOCCOCCOCCOCCOCCOCCOCC(OCCOCCOCCOCCOCCOCCOCCOCCOCCOCCOCCOCCOCCOCCOCCOCCOCCOCCOCCOCCO)C1OCC(OCCOCCOCCOCCOCCOCCOCCOCCOCCOCCOCCOCCOCCOCCOCCOCCOCCOCCOCCOCCO)C1OCCOCCOCCOCCOCCOCCOCCOCCOCCOCCOCCOCCOCCOCCOCCOCCOCCOCCOCCOCCO (stereo not shown) [PS20, polysorbate 20]
Fold improvement over octoxynol-9 and DB control (capsid recovery in clarified lysate) (HEK293 cells [1]; 0.2M Arginine modifier, LCD): 1.8 fold | Fold improvement over octoxynol-9 and DB control (capsid recovery in clarified lysate) (HEK293 cells [1]; 0.7M NaCl modifier, LCD): 0.7 fold | Fold improvement over octoxynol-9 and DB control (capsid recovery in clarified lysate) (HEK293 cells [1]; [7]): 0.5 fold

CCCCCCCCCCCCOS(=O)(=O)[O-].[Na+] [SDS, sodium dodecyl sulfate]
Fold improvement over octoxynol-9 and DB control (capsid recovery in clarified lysate) (HEK293 cells [1]; 0.2M Arginine modifier, LCD): 0.9 fold | Fold improvement over octoxynol-9 and DB control (capsid recovery in clarified lysate) (HEK293 cells [1]; 0.7M NaCl modifier, LCD): 0.2 fold | Fold improvement over octoxynol-9 and DB control (capsid recovery in clarified lysate) (HEK293 cells [1]; [7]): 0.1 fold

CCCCCCCCCCCC(=O)N(C)CC(=O)[O-].[Na+] [sarkosyl]
Fold improvement over octoxynol-9 and DB control (capsid recovery in clarified lysate) (HEK293 cells [1]; [7]): 0.3 fold

Octoxynol-9 [reference compound]
Minimum reduction values Run 1 [6]: ≥4.43 ± 0.25 Log | Minimum reduction values Run 2 [6]: ≥4.49 ± 0.27 Log | Process demonstrated viral removal or inactivation (Log reduction >1) [6]: Demonstrated inactivation | Process demonstrated viral removal or inactivation (Log reduction >1) ([5]; 0.5% octoxynol-9, 90 mins): Demonstrated inactivation | Minimum reduction values Run 1 [5, 14]: ≥4.43 ± 0.28 Log | Minimum reduction values Run 2 [5, 14]: ≥4.19 ± 0.18 Log
